Laboratory results: article PMC5940854, “Nitrothiophene carboxamides, a novel narrow spectrum antibacterial series: Mechanism of action and Efficacy” (Scientific Reports, 2018)
In brackets after ≈: the same amount, converted by molar mass. Each block holds one molecule with its values, some of them ahead of it. Residues, ends and D or L forms follow the SMILES beside them. *: point of attachment. βNA = c1ccc2cc(N*)ccc2c1

Key:
[1] = molecular target: T1, AcrB (Escherichia coli, UniProt P31224); assay: Thermal shift assay with CPM dye; design: species or system E. coli; details: AcrB vs apo-protein; > 1°C implies binding
T1 construct: Full length acrB gene was amplified from E. coli; BW25113; His-tag (C); made in house; host or cells: E. coli C43(DE3), plasmid pET21a
Description: AcrB overexpression protocol is adopted from Du. et al.[31]. Full length acrB gene was amplified from E. coli. BW25113 using Forward Primer 5′-[…]-3′ Reverse Primer 5′-[…]-3′ and cloned into the plasmid pET21a. The resultant plasmid that would express AcrB with a C-terminal His-tag is transformed into E. coli strain C43(DE3). The cells are induced on reaching A600 = 0.6 and transferred to 18 °C. The culture is harvested by centrifugation and re-suspended in Buffer A (100 mM Sodium Phosphate, 100 mM NaCl, 10 mM Imidazole, pH = 7.4, 100 µg/ml protease inhibitor cocktail from Roche and 5 U/ml DNase I and 5 mg/ml lysozyme). The cells are lysed at 15000 psi using Emulsiflex and centrifuged at 8000 g for removing cell debris. The membrane is isolated by centrifuging the resultant supernatant at 125000 g (see Coomassie stained SDS-PAGE of the purified protein Figure S9). Membrane solubilisation is done using Buffer A and 1.5% DDM (n-Dodecyl-β-D-Maltoside). Ni-NTA chromatography is used to purify the His-tagged protein and eluted in Buffer A with 300 mM Imidazole and 1.5% DDM.
The assay is performed according to protocols established elsewhere. CPM (N- [4-(7-diethylamino-4-methyl-3-coumarinyl) phenyl] maleimide) is a thiol specific fluorochrome (Excitation 387 nm, Emission 463 nm) and is non-fluorescent in an unbound state. The proteins, on thermal unfolding exposes cysteines allowing the CPM to bind and fluoresce. […]. The thermal denaturation is performed in a fluorimeter that is heated from 25 to 90 °C at a ramp rate of 1 °C/min. The Tm is calculated by analysing the melting profiles using Boltzmann Sigmoid function (GraphPad Prism) and ∆Tm is calculated by measuring the difference between the Tm of inhibitor bound protein and the apo-protein.

[2] = molecular target: T2, AcrB efflux pump in E. coli BW25113 (Escherichia coli, UniProt P31224); assay: Nile red efflux assay (whole-cell competition); assay type: cell-based
T2 construct: endogenous in cells; host or cells: E. coli BW25113 (wild type)
Description: The Nile red assay is adopted from Bohnert et al.[18]. An overnight culture of E. coli strain BW25113 is harvested and is resuspended in 20 mM potassium phosphate buffer (pH 7.0) containing 1 mM MgCl2 (PPB). The cells are adjusted to an A660 of 1.0 in PPB and aliquoted into glass tubes (2 ml each). Carbonylcyanide-m-chlorophenylhydrazone (CCCP; a protonophore that uncouples the electron transport chain and thus inhibits AcrB mediated efflux) is added to a final concentration of 10 µM (5 mM stock solution in 50% DMSO) and incubated for 15 minutes before adding the potential competitor at desired concentrations. Nile red is then added (stock solution of 5 mM in 10% dimethyl formamide-90% ethanol [vol/vol]) to a final concentration of 5 µM. The cell suspension is incubated at room temperature on a shaker for 3 hours. The cells are harvested and resuspended in 2 ml PPB in the presence of the competitor. The cell suspension is aliquoted in a fluorimeter cuvette, to which, 100 µl of 1 M Glucose is added to activate the electron transport chain. The rate of efflux is measured by Tefflux50, it is the time taken for 50% of Nile red to be effluxed out in presence of the compounds. The fluorescence is measured (Excitation 552 nm, Emission 636 nm) for 200 seconds.

[3] = system: ATCC25922; assay: MIC on E. coli ATCC25922; assay type: cell-based; details: strain ATCC25922
Description: The inoculum used for all the experiments is derived from a single seed lot that is maintained as glycerol stocks at −80 °C and are sub cultured on LB plate for isolated colonies. Single colony of each strain is grown in M9 medium. All test compound stocks and dilutions are prepared in DMSO. Serial two-fold dilutions of compounds are prepared separately, with the concentrations ranging from 2 mg/mL to 0.015 mg/mL. To 150 µl (3–7 × 10^5 CFU/ml) of bacterial culture in 96 well microtitre plates, 3 μL compound from each of the dilutions is added to respective wells to obtain final concentrations ranging from 40 µg/mL to 0.3 µg/mL of the test compounds. Media control, culture control and appropriate reference drug controls are included. […] Growth is monitored by checking absorbance at 600 nm (A600). […] The samples from MIC and above concentrations are plated for MBC (Minimum Bactericidal Concentration). The samples are diluted 1:10 and plated on LB agar plates. […] The killing kinetics is determined by enumerating survivors at various time points following compound exposure. E. coli cells (~10^7 CFU/ml; A600 of 0.1) are treated with various concentrations (40 µg/mL to 0.3 µg/mL) of compounds in a 96-well microtitre plate. At various time intervals (0 to 8 h), 30 μl volumes of treated cultures are serially diluted and plated on LB agar plates. […] Data is expressed as the log10 CFU for each drug treatment.

[4] = system: E. coli clinical isolates; assay: MIC on panel of E. coli clinical isolates; assay type: cell-based

T2 sequence (P0AE06 25-397): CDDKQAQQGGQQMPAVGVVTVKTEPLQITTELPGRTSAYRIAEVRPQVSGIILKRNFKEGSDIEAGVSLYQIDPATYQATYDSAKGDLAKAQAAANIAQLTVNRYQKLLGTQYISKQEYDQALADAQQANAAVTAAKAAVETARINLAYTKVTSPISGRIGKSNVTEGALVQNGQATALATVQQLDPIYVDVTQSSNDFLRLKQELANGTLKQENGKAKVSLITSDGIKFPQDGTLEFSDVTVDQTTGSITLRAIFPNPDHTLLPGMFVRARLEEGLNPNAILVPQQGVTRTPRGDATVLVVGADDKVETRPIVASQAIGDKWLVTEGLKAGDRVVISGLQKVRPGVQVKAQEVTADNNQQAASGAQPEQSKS
T2 sequence (P31224 whole entry): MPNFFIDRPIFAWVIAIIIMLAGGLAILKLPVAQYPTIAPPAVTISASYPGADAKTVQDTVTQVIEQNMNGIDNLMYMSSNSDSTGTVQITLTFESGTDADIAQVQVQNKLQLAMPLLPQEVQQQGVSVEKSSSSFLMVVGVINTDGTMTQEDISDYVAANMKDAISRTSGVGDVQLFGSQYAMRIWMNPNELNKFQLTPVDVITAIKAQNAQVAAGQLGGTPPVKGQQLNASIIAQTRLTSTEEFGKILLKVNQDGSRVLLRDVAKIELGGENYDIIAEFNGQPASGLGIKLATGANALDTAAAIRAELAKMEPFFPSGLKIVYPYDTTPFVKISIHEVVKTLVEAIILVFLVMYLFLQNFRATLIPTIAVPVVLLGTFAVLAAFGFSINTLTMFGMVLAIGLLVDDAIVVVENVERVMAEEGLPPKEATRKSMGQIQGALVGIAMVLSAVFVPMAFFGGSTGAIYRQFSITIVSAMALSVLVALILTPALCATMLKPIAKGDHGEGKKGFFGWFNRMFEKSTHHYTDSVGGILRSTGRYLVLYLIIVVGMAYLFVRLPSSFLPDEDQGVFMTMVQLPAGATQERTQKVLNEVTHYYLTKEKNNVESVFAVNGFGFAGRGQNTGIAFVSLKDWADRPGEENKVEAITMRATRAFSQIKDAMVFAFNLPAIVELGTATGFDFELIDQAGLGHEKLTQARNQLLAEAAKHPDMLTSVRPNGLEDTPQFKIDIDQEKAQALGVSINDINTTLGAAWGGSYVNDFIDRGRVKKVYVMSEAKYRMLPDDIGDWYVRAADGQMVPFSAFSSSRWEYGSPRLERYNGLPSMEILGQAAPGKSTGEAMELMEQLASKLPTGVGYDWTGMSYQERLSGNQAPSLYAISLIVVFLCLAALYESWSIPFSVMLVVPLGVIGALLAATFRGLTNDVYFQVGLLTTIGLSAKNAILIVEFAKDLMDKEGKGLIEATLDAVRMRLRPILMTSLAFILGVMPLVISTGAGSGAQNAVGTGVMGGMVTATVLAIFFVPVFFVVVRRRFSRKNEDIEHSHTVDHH
T2 sequence (P02930 23-493, further chain): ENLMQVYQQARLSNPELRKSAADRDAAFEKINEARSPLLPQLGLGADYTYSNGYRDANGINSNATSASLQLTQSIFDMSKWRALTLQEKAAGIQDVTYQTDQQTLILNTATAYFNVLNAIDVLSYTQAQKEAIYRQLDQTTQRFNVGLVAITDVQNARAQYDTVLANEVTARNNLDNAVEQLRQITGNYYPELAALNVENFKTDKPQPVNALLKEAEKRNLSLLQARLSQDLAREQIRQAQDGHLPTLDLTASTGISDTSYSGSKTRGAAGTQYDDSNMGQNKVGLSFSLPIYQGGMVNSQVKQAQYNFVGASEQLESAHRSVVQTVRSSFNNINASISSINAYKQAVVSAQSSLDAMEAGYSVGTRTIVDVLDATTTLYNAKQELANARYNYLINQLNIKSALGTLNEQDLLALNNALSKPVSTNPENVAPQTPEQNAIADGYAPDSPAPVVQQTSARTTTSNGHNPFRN
T1 sequence (P31224 whole entry): as the sequence (P31224 whole entry) above

Structure (SMILES): NC(N)=NCCC[C@H](NC(=O)[C@@H](N)Cc1ccccc1)C(=O)Nc1ccc2ccccc2c1 [PAβN, Phenylalanine-Arginine Beta-Naphthylamide, reference compound] (H-Phe-Arg-βNA)
∆Tm [1]: 3.84 °C
Tefflux50 ([2]; 1µM compound, time for 50% of Nile red to be effluxed, read for 200 seconds): 200 s
Tefflux50 ([2]; 9µM compound): 200 s
Tefflux50 ([2]; 27µM compound): 200 s
Tefflux50 ([2]; 81µM compound): 200 s
Tefflux50 ([2]; 100µM compound): 200 s
Tefflux50 ([2]; 200µM compound): 200 s
Tefflux50 ([2]; 400µM compound): 200 s

MIC [3]: 2 µg/mL (≈ 4.19 µM)
MIC50 ([4]; Escherichia coli, 75 E.coli clinical isolates, 50% clinical isolates): 16 µg/mL (≈ 33.5 µM)
MIC90 ([4]; Escherichia coli, 75 E.coli clinical isolates, 90% clinical isolates): > 64 µg/mL
MIC ([4]; strain SEC001): > 64 µg/mL
MIC ([4]; strain SEC002): 4 µg/mL (≈ 8.38 µM)
MIC ([4]; strain SEC003): > 64 µg/mL
MIC ([4]; strain SEC004): 4 µg/mL (≈ 8.38 µM)
MIC ([4]; strain SEC005): > 64 µg/mL
MIC ([4]; strain SEC006): 4 µg/mL (≈ 8.38 µM)
MIC ([4]; strain SEC007): > 64 µg/mL
MIC ([4]; strain SEC008): > 64 µg/mL
MIC ([4]; strain SEC011): > 64 µg/mL
MIC ([4]; strain SEC012): 4 µg/mL (≈ 8.38 µM)
MIC ([4]; strain SEC013): > 64 µg/mL
MIC ([4]; strain SEC014): > 64 µg/mL
MIC ([4]; strain SEC015): > 64 µg/mL
MIC ([4]; strain SEC016): 4 µg/mL (≈ 8.38 µM)
MIC ([4]; strain SEC017): > 64 µg/mL
MIC ([4]; strain SEC018): 0.5 µg/mL (≈ 1.05 µM)
MIC ([4]; strain SEC019): > 64 µg/mL
MIC ([4]; strain SEC020): 2 µg/mL (≈ 4.19 µM)
MIC ([4]; strain SEC021): > 64 µg/mL
MIC ([4]; strain SEC022): > 64 µg/mL
MIC ([4]; strain SEC023): 4 µg/mL (≈ 8.38 µM)
MIC ([4]; strain SEC024): > 64 µg/mL
MIC ([4]; strain SEC025): > 64 µg/mL
MIC ([4]; strain SEC026): 2 µg/mL (≈ 4.19 µM)
MIC ([4]; strain SEC028): 2 µg/mL (≈ 4.19 µM)
MIC ([4]; strain SEC029): 4 µg/mL (≈ 8.38 µM)
MIC ([4]; strain SEC031): > 64 µg/mL
MIC ([4]; strain SEC032): 4 µg/mL (≈ 8.38 µM)
MIC ([4]; strain SEC033): > 64 µg/mL
MIC ([4]; strain SEC034): 2 µg/mL (≈ 4.19 µM)
MIC ([4]; strain SEC035): > 64 µg/mL
MIC ([4]; strain SEC036): 4 µg/mL (≈ 8.38 µM)
MIC ([4]; strain SEC037): 4 µg/mL (≈ 8.38 µM)
MIC ([4]; strain SEC038): 4 µg/mL (≈ 8.38 µM)
MIC ([4]; strain SEC039): 2 µg/mL (≈ 4.19 µM)
MIC ([4]; strain SEC040): 32 µg/mL (≈ 67 µM)
MIC ([4]; strain SEC041): 4 µg/mL (≈ 8.38 µM)
MIC ([4]; strain SEC042): > 64 µg/mL
MIC ([4]; strain SEC043): > 64 µg/mL
MIC ([4]; strain SEC044): > 64 µg/mL
MIC ([4]; strain SEC045): 4 µg/mL (≈ 8.38 µM)
MIC ([4]; strain SEC046): 4 µg/mL (≈ 8.38 µM)
MIC ([4]; strain SEC047): > 64 µg/mL
MIC ([4]; strain SEC048): 4 µg/mL (≈ 8.38 µM)
MIC ([4]; strain SEC049): 4 µg/mL (≈ 8.38 µM)
MIC ([4]; strain SEC050): > 64 µg/mL
MIC ([4]; strain SEC051): 2 µg/mL (≈ 4.19 µM)
MIC ([4]; strain SEC052): 2 µg/mL (≈ 4.19 µM)
MIC ([4]; strain SEC053): > 64 µg/mL
MIC ([4]; strain SEC054): 8 µg/mL (≈ 16.8 µM)
MIC ([4]; strain SEC055): 2 µg/mL (≈ 4.19 µM)
MIC ([4]; strain SEC057): 4 µg/mL (≈ 8.38 µM)
MIC ([4]; strain SEC058): 4 µg/mL (≈ 8.38 µM)
MIC ([4]; strain SEC059): 2 µg/mL (≈ 4.19 µM)
MIC ([4]; strain SEC060): 32 µg/mL (≈ 67 µM)
MIC ([4]; strain SEC061): > 64 µg/mL
MIC ([4]; strain SEC062): 8 µg/mL (≈ 16.8 µM)
MIC ([4]; strain SEC063): 0.5 µg/mL (≈ 1.05 µM)
MIC ([4]; strain SEC064): > 64 µg/mL
MIC ([4]; strain SEC065): > 64 µg/mL
MIC ([4]; strain SEC067): 4 µg/mL (≈ 8.38 µM)
MIC ([4]; strain SEC068): > 64 µg/mL
MIC ([4]; strain SEC069): > 64 µg/mL
MIC ([4]; strain SEC070): > 64 µg/mL
MIC ([4]; strain SEC071): 32 µg/mL (≈ 67 µM)
MIC ([4]; strain SEC072): > 64 µg/mL
MIC ([4]; strain SEC073): > 64 µg/mL
MIC ([4]; strain SEC074): > 64 µg/mL
MIC ([4]; strain SEC075): > 64 µg/mL
MIC ([4]; strain SEC076): 4 µg/mL (≈ 8.38 µM)
MIC ([4]; strain SEC077): 16 µg/mL (≈ 33.5 µM)
MIC ([4]; strain SEC078): > 64 µg/mL
MIC ([4]; strain SEC079): > 64 µg/mL
MIC ([4]; strain SEC080): 4 µg/mL (≈ 8.38 µM)
Structure (SMILES): CNC(C)C1CCC(N)C(OC2C(N)CC(N)C(OC3OCC(C)(O)C(NC)C3O)C2O)O1 (stereo not shown) [gentamicin, reference compound]
